Assays:
Format in all cases: in vivo
[1] = test system: bluegrass (annual bluegrass, Poa annua); assay: Test D controlled growth environment herbicide test, pre- and postemergence; settings: for Bluegrass plant response rating / Plant response rating (scale of 0 to 100), Bluegrass: 31 g ai/ha
In short: (§1)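 Pre-emergence: seeds sown in silt loam soil were sprayed with compound in a non-phytotoxic solvent mix containing surfactant. Post-emergence: plants at 2 to 18 cm (1- to 4-leaf stage) in peat moss/vermiculite medium got the same formulation. Visual 0–100 rating versus controls after 14 to 21 d.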

[2] = test system: bromegrass, downy (downy bromegrass, Bromus tectorum); assay: as above; settings: for Bromegrass, Downy plant response rating / Plant response rating (scale of 0 to 100), Bromegrass, Downy: 31 g ai/ha
In short: as §1

[3] = test system: speedwell (bird's-eye speedwell, Veronica persica); assay: as above; settings: for Speedwell plant response rating / Plant response rating (scale of 0 to 100), Speedwell: 31 g ai/ha
In short: as §1

[4] = test system: ryegrass, Italian (Italian ryegrass, Lolium multiflorum); assay: as above; settings: for Ryegrass, Italian plant response rating / Plant response rating (scale of 0 to 100), Ryegrass, Italian: 31 g ai/ha
In short: as §1

[5] = test system: waterhemp (common waterhemp, Amaranthus rudis); assay: Test E greenhouse herbicide test, pre- and postemergence
Source text: (§2) Seeds of plant species selected from corn (Zea mays), soybean (Glycine max), velvetleaf (Abutilon theophrasti), lambsquarters (Chenopodium album), wild poinsettia (Euphorbia heterophylla), pigweed, palmer (palmer pigweed, Amaranthus palmeri), waterhemp (common waterhemp, Amaranthus rudis), surinam grass (Brachiaria decumbens), crabgrass, large (large crabgrass, Digitaria sanguinalis), crabgrass, Brazilian (Brazilian crabgrass, Digitaria horizontalis), panicum, fall (fall panicum, Panicum dichotomiflorum), foxtail, giant (giant foxtail, Setaria faberii), foxtail, green (green foxtail, Setaria viridis), goosegrass (Eleusine indica), johnsongrass (Sorghum halepense), ragweed (common ragweed, Ambrosia elatior), barnyardgrass (Echinochloa crus-galli), sandbur (southem sandbur, Cenchrus echinatus), arrowleaf sida (Sida rhombifolia), Italian ryegrass (Lolium multiflorum), dayflower (Virginia (VA) dayflower, Commelina virginica), field bindweed (Convolvulus arvensis), momingglory (Ipomoea coccinea), nightshade (eastern black nightshade, Solanum ptycanthum), kochia (Kochia scoparia), nutsedge, yellow (yellow nutsedge, Cyperus esculentus), horseweed (Conyza canadensis), and beggarticks (hairy beggarticks, Bidens pilosa), were planted into a silt loam soil and treated preemergence with test chemicals formulated in a non-phytotoxic solvent mixture which included a surfactant.
(§3) At the same time, plants from these crop and weed species and also waterhemp_RES1, (ALS & Triazine resistant common waterhemp, Amaranthus rudis), and waterhemp_RES2, (ALS & HPPD resistant common waterhemp, Amaranthus rudis) were planted in pots containing Redi-Earth® planting medium (Scotts Company, 14111 Scottslawn Road, Marysville, Ohio 43041) comprising spaghnum peat moss, vermiculite, wetting agent and starter nutrients were treated with postemergence applications of test chemicals formulated in the same manner. Plants ranged in height from 2 to 18 cm for postemergence treatments (1- to 4-leaf stage). Treated plants and controls were maintained in a greenhouse for 14 to 21 d, after which time all species were compared to controls and visually evaluated. Plant response ratings, summarized in Table E, are based on a scale of 0 to 100 where 0 is no effect and 100 is complete control. A dash (-) response means no test result.

[6] = test system: crabgrass, Brazilian (Brazilian crabgrass, Digitaria horizontalis); assay: as above
Source text: as §2, §3

[7] = test system: soybean (Glycine max); assay: as above
Source text: as §2, §3

[8] = test system: corn (Zea mays); assay: as above
Source text: as §2, §3

[9] = Postemergence, scale 0 to 100 (0 no effect, 100 complete control)
[10] = Postemergence, 125 g ai/ha, visual rating on scale 0 (no effect) to 100 (complete control), 14 to 21 d
[11] = Postemergence, 250 g ai/ha, scale 0 to 100 (0 no effect, 100 complete control)
[12] = Preemergence, 62 g ai/ha, scale 0 to 100 (0 no effect, 100 complete control)
[13] = Preemergence, 125 g ai/ha, scale 0 to 100 (0 no effect, 100 complete control)
[14] = Preemergence, 250 g ai/ha, scale 0 to 100, 0 no effect, 100 complete control
[15] = postemergence, 62 g ai/ha, scale 0 to 100, 0 no effect, 100 complete control
[16] = 62 g ai/ha, Postemergence, scale 0 to 100 (0 no effect, 100 complete control)
[17] = 62 g ai/ha, Preemergence, scale 0 to 100 (0 no effect, 100 complete control)
[18] = 125 g ai/ha, Postemergence, scale 0 to 100 (0 no effect, 100 complete control)
[19] = 125 g ai/ha, Preemergence, scale 0 to 100 (0 no effect, 100 complete control)
[20] = 250 g ai/ha, Postemergence, scale 0 to 100 (0 no effect, 100 complete control)
[21] = Postemergence, 31 g ai/ha, visual, scale 0 no effect to 100 complete control
[22] = Preemergence, 31 g ai/ha, scale 0 to 100, 0 no effect, 100 complete control
[23] = Preemergence, 250 g ai/ha, visual, scale 0 no effect to 100 complete control
[24] = Postemergence, 16 g ai/ha, visual, scale 0 no effect to 100 complete control
[25] = Preemergence, 16 g ai/ha, scale 0 to 100, 0 no effect, 100 complete control

Structure (SMILES): Cc1nn(C)c(=O)c(-c2ccc(Br)c3ccccc23)c1O [Compound 75]
- Bluegrass plant response rating [1, 9]: 10
- Plant response rating, Bluegrass [1, 10]: 15
- Plant response rating, Bluegrass [1, 11]: 15
- Plant response rating (scale of 0 to 100), Bluegrass ([1]; Preemergence): 15
- Plant response rating, Bluegrass [1, 12]: 15
- Plant response rating, Bluegrass [1, 13]: 10
- Plant response rating, Bluegrass [1, 14]: 35
- Plant response rating, Bluegrass [1, 15]: 10
- Bromegrass, Downy plant response rating [2, 9]: 0
- Plant response rating, Bromegrass, Downy [2, 10]: 15
- Plant response rating, Bromegrass, Downy [2, 11]: 30
- Plant response rating (scale of 0 to 100), Bromegrass, Downy ([2]; Preemergence): 0
- Plant response rating, Bromegrass, Downy [2, 12]: 0
- Plant response rating, Bromegrass, Downy [2, 13]: 10
- Plant response rating, Bromegrass, Downy [2, 14]: 25
- Plant response rating, Bromegrass, Downy [2, 15]: 0
- Speedwell plant response rating [3, 9]: 80
- Plant response rating, Speedwell [3, 10]: 100
- Plant response rating, Speedwell [3, 11]: 100
- Plant response rating (scale of 0 to 100), Speedwell ([3]; Preemergence): 95
- Plant response rating, Speedwell [3, 12]: 100
- Plant response rating, Speedwell [3, 13]: 100
- Plant response rating, Speedwell [3, 14]: 100
- Plant response rating, Speedwell [3, 15]: 100
- Ryegrass, Italian plant response rating [4, 9]: 90
- Plant response rating, Ryegrass, Italian [4, 10]: 95
- Plant response rating, Ryegrass, Italian [4, 11]: 98
- Plant response rating (scale of 0 to 100), Ryegrass, Italian ([4]; Preemergence): 95
- Plant response rating, Ryegrass, Italian [4, 12]: 100
- Plant response rating, Ryegrass, Italian [4, 13]: 100
- Plant response rating, Ryegrass, Italian [4, 14]: 0
- Plant response rating, Ryegrass, Italian [4, 15]: 95
- Plant response rating, Waterhemp [5, 16]: 90
- Plant response rating, Waterhemp [5, 17]: 60
- Plant response rating, Waterhemp [5, 18]: 90
- Plant response rating, Waterhemp [5, 19]: 100
- Plant response rating, Waterhemp [5, 20]: 95
- Plant response rating, Waterhemp [5, 21]: 80
- Plant response rating, Waterhemp [5, 22]: 50
- Plant response rating, Waterhemp [5, 23]: 100
- Plant response rating, Crabgrass, Brazil [6, 16]: 40
- Plant response rating, Crabgrass, Brazil [6, 17]: 20
- Plant response rating, Crabgrass, Brazil [6, 18]: 50
- Plant response rating, Crabgrass, Brazil [6, 19]: 90
- Plant response rating, Crabgrass, Brazil [6, 20]: 50
- Plant response rating, Crabgrass, Brazil [6, 21]: 40
- Plant response rating, Crabgrass, Brazil [6, 22]: 0
- Plant response rating, Crabgrass, Brazil [6, 23]: 90
- Plant response rating, Soybean [7, 16]: 70
- Plant response rating, Soybean [7, 17]: 35
- Plant response rating, Soybean [7, 18]: 70
- Plant response rating, Soybean [7, 19]: 40
- Plant response rating, Soybean [7, 20]: 75
- Plant response rating, Soybean [7, 21]: 70
- Plant response rating, Soybean [7, 22]: 0
- Plant response rating, Soybean [7, 23]: 70
- Plant response rating, Corn [8, 16]: 0
- Plant response rating, Corn [8, 17]: 0
- Plant response rating, Corn [8, 18]: 0
- Plant response rating, Corn [8, 19]: 0
- Plant response rating, Corn [8, 20]: 0
- Plant response rating, Corn [8, 21]: 0
- Plant response rating, Corn [8, 22]: 0
- Plant response rating, Corn [8, 23]: 35

Structure (SMILES): Cc1ccc2sc(C)c(-c3c(OC(=O)OC(C)C)c(C)nn(C)c3=O)c2c1 [Compound 66]
- Bluegrass plant response rating [1, 9]: 0
- Plant response rating, Bluegrass [1, 10]: 30
- Plant response rating, Bluegrass [1, 11]: 35
- Plant response rating (scale of 0 to 100), Bluegrass ([1]; Preemergence): 10
- Plant response rating, Bluegrass [1, 12]: 15
- Plant response rating, Bluegrass [1, 13]: 25
- Plant response rating, Bluegrass [1, 14]: 30
- Plant response rating, Bluegrass [1, 15]: 25
- Bromegrass, Downy plant response rating [2, 9]: 50
- Plant response rating, Bromegrass, Downy [2, 10]: 65
- Plant response rating, Bromegrass, Downy [2, 11]: 70
- Plant response rating (scale of 0 to 100), Bromegrass, Downy ([2]; Preemergence): 15
- Plant response rating, Bromegrass, Downy [2, 12]: 60
- Plant response rating, Bromegrass, Downy [2, 13]: 80
- Plant response rating, Bromegrass, Downy [2, 14]: 85
- Plant response rating, Bromegrass, Downy [2, 15]: 60
- Speedwell plant response rating [3, 9]: 55
- Plant response rating, Speedwell [3, 10]: 70
- Plant response rating, Speedwell [3, 11]: 75
- Plant response rating (scale of 0 to 100), Speedwell ([3]; Preemergence): 75
- Plant response rating, Speedwell [3, 12]: 100
- Plant response rating, Speedwell [3, 13]: 100
- Plant response rating, Speedwell [3, 14]: 100
- Plant response rating, Speedwell [3, 15]: 70
- Ryegrass, Italian plant response rating [4, 9]: 85
- Plant response rating, Ryegrass, Italian [4, 10]: 95
- Plant response rating, Ryegrass, Italian [4, 11]: 98
- Plant response rating (scale of 0 to 100), Ryegrass, Italian ([4]; Preemergence): 80
- Plant response rating, Ryegrass, Italian [4, 12]: 85
- Plant response rating, Ryegrass, Italian [4, 13]: 90
- Plant response rating, Ryegrass, Italian [4, 14]: 95
- Plant response rating, Ryegrass, Italian [4, 15]: 95
- Plant response rating, Waterhemp [5, 16]: 75
- Plant response rating, Waterhemp [5, 17]: 80
- Plant response rating, Waterhemp [5, 18]: 80
- Plant response rating, Waterhemp [5, 19]: 90
- Plant response rating, Waterhemp [5, 24]: 70
- Plant response rating, Waterhemp [5, 21]: 65
- Plant response rating, Waterhemp [5, 25]: 0
- Plant response rating, Waterhemp [5, 22]: 65
- Plant response rating, Crabgrass, Brazil [6, 16]: 30
- Plant response rating, Crabgrass, Brazil [6, 17]: 25
- Plant response rating, Crabgrass, Brazil [6, 18]: 40
- Plant response rating, Crabgrass, Brazil [6, 19]: 65
- Plant response rating, Crabgrass, Brazil [6, 24]: 10
- Plant response rating, Crabgrass, Brazil [6, 21]: 20
- Plant response rating, Crabgrass, Brazil [6, 25]: 0
- Plant response rating, Crabgrass, Brazil [6, 22]: 25
- Plant response rating, Soybean [7, 16]: 20
- Plant response rating, Soybean [7, 17]: 0
- Plant response rating, Soybean [7, 18]: 20
- Plant response rating, Soybean [7, 19]: 0
- Plant response rating, Soybean [7, 24]: 0
- Plant response rating, Soybean [7, 21]: 0
- Plant response rating, Soybean [7, 25]: 0
- Plant response rating, Soybean [7, 22]: 0
- Plant response rating, Corn [8, 16]: 10
- Plant response rating, Corn [8, 17]: 0
- Plant response rating, Corn [8, 18]: 15
- Plant response rating, Corn [8, 19]: 20
- Plant response rating, Corn [8, 24]: 0
- Plant response rating, Corn [8, 21]: 0
- Plant response rating, Corn [8, 25]: 0
- Plant response rating, Corn [8, 22]: 0

From patent US10597388B2, “Pyridazinone herbicides” (FMC CORPORATION, priority 2014, dated 2020)
